target: Epidermal growth factor receptor (Homo sapiens, UniProt P00533); experiment: Inhibition of EGFR (unknown origin) by Z -LYTE assay
Sequence (P00533 whole entry): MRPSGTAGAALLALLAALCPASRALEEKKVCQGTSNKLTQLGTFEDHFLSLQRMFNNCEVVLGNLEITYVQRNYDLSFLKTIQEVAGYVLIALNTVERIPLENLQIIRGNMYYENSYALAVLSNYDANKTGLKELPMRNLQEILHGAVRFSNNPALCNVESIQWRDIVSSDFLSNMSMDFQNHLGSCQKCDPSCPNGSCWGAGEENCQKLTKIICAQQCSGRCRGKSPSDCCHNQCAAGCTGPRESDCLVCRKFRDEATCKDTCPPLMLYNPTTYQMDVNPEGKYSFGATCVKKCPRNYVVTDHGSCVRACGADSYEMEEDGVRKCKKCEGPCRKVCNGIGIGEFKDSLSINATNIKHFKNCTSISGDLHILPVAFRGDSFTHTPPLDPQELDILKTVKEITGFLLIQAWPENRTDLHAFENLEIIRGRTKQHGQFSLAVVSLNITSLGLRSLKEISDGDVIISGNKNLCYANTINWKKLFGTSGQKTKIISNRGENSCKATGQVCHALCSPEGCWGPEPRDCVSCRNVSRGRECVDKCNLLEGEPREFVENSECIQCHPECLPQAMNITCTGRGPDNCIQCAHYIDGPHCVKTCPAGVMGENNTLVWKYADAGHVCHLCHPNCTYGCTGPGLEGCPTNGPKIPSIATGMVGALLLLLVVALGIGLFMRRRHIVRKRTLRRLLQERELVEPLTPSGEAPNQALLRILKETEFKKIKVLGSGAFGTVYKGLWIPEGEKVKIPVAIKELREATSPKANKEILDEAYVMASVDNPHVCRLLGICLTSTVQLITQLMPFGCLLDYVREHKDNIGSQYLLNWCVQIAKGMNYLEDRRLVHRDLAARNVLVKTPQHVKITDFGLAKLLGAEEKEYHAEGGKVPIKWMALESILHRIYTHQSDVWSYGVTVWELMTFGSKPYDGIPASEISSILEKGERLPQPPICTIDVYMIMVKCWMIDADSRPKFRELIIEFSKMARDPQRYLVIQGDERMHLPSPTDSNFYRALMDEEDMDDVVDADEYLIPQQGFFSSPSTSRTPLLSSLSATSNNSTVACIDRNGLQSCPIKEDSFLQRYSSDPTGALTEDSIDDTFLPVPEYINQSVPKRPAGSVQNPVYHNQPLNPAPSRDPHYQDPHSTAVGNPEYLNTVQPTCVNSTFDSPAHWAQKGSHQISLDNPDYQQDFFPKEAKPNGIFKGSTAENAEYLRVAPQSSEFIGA

SMILES	IC50
COc1cc(C(N)=O)ccc1-c1cc2c(N[C@H](CO)c3ccccc3)ncnc2s1	1.5 nM
CN(C)CCNC(=O)c1ccc(-c2cc3c(N[C@H](CO)c4ccccc4)ncnc3s2)cc1	2 nM
COc1ccc(C(=O)NCCN(C)C)cc1-c1cc2c(N[C@H](C)c3ccccc3)ncnc2s1	0.5 nM

target: Tyrosine-protein kinase ABL1 (Homo sapiens) (UniProt P00519); experiment: Inhibition of ABL1 (unknown origin) at 500 nM
Sequence (P00519 whole entry): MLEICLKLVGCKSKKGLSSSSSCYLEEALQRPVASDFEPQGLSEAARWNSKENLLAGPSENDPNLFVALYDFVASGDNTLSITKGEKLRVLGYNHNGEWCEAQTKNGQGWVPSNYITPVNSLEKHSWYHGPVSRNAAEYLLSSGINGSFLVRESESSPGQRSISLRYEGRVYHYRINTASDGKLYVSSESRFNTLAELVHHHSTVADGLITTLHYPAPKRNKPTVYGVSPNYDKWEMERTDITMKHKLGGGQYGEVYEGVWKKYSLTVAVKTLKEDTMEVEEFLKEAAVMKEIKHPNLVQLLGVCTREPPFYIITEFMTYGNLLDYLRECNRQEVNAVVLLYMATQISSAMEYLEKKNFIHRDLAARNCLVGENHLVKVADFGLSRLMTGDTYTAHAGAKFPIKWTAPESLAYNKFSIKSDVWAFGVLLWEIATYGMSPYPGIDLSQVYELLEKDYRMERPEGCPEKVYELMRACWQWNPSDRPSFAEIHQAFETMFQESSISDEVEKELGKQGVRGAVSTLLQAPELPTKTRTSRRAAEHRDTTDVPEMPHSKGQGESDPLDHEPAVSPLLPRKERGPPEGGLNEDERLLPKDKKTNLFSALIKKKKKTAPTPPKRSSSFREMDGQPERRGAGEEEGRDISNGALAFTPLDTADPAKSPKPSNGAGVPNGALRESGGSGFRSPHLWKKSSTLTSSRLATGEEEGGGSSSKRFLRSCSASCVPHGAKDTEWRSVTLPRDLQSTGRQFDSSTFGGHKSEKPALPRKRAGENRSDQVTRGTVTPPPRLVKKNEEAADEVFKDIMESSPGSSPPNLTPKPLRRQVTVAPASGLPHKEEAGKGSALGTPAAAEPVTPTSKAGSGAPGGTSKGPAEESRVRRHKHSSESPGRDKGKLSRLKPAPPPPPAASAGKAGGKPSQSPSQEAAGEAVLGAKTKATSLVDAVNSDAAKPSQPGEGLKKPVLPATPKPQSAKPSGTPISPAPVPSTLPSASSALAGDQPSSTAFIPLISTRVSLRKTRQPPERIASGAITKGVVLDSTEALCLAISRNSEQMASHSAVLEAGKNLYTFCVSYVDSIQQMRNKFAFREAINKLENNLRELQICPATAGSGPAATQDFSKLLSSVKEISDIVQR

SMILES	inhibition
COc1cc(C(N)=O)ccc1-c1cc2c(N[C@H](CO)c3ccccc3)ncnc2s1	4%
CN(C)CCNC(=O)c1ccc(-c2cc3c(N[C@H](CO)c4ccccc4)ncnc3s2)cc1	27%
COc1ccc(C(=O)NCCN(C)C)cc1-c1cc2c(N[C@H](C)c3ccccc3)ncnc2s1	6%

target: Aurora kinase B (Homo sapiens) (UniProt Q96GD4); experiment: Inhibition of AURKB (unknown origin) at 500 nM

SMILES	inhibition
COc1cc(C(N)=O)ccc1-c1cc2c(N[C@H](CO)c3ccccc3)ncnc2s1	6%
CN(C)CCNC(=O)c1ccc(-c2cc3c(N[C@H](CO)c4ccccc4)ncnc3s2)cc1	23%
COc1ccc(C(=O)NCCN(C)C)cc1-c1cc2c(N[C@H](C)c3ccccc3)ncnc2s1	-2%

target: Serine/threonine-protein kinase B-raf (Homo sapiens) (UniProt P15056); experiment: Inhibition of BRAF (unknown origin) at 500 nM
Sequence (P15056 whole entry): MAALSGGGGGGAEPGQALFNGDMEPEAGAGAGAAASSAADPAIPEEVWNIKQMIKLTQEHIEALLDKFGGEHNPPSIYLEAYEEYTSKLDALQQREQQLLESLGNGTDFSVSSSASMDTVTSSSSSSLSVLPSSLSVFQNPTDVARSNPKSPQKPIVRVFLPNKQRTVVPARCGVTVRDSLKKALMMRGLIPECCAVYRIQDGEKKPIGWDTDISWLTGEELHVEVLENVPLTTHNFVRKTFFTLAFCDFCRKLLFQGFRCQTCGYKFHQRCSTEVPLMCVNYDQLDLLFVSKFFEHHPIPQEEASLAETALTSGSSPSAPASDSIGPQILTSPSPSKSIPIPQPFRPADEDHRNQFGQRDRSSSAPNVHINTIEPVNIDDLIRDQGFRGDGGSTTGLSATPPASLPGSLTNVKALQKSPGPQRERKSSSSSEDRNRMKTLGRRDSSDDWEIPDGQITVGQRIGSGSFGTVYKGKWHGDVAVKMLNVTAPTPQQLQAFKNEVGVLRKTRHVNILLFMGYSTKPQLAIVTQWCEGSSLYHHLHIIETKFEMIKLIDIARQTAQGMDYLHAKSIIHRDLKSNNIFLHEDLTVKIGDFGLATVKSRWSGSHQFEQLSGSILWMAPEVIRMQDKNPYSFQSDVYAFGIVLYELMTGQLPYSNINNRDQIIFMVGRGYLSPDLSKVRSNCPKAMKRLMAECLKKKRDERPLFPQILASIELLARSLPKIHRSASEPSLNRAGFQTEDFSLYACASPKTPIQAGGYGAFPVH

SMILES	inhibition
COc1cc(C(N)=O)ccc1-c1cc2c(N[C@H](CO)c3ccccc3)ncnc2s1	25%
CN(C)CCNC(=O)c1ccc(-c2cc3c(N[C@H](CO)c4ccccc4)ncnc3s2)cc1	7%
COc1ccc(C(=O)NCCN(C)C)cc1-c1cc2c(N[C@H](C)c3ccccc3)ncnc2s1	7%

target: T1, Serine/threonine-protein kinase Chk1 (Homo sapiens) (UniProt O14757); experiment: Inhibition of CHEK1 (unknown origin) at 500 nM
T1 sequence (whole entry): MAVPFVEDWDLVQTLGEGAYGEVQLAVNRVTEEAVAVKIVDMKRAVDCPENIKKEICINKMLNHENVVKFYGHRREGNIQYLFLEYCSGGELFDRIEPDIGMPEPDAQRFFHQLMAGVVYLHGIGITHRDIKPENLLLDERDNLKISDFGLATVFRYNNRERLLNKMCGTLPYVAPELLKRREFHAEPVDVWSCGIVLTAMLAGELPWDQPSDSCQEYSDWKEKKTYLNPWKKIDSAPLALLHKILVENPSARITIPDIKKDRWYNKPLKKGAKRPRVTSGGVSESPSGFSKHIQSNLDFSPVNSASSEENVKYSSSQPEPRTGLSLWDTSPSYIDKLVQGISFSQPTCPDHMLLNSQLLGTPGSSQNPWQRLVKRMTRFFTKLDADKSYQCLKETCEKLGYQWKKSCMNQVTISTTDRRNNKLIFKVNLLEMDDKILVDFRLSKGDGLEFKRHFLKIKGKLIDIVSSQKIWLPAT

SMILES	inhibition
CN(C)CCNC(=O)c1ccc(-c2cc3c(N[C@H](CO)c4ccccc4)ncnc3s2)cc1	-5%
COc1ccc(C(=O)NCCN(C)C)cc1-c1cc2c(N[C@H](C)c3ccccc3)ncnc2s1	-8%

target: Macrophage colony-stimulating factor 1 receptor (Homo sapiens) (UniProt P07333); experiment: Inhibition of CSF1R (unknown origin) at 500 nM

SMILES	inhibition
COc1cc(C(N)=O)ccc1-c1cc2c(N[C@H](CO)c3ccccc3)ncnc2s1	6%
CN(C)CCNC(=O)c1ccc(-c2cc3c(N[C@H](CO)c4ccccc4)ncnc3s2)cc1	0%
COc1ccc(C(=O)NCCN(C)C)cc1-c1cc2c(N[C@H](C)c3ccccc3)ncnc2s1	6%

target: Tyrosine-protein kinase CSK (Homo sapiens) (UniProt P41240); experiment: Inhibition of CSK (unknown origin) at 500 nM

SMILES	inhibition
COc1cc(C(N)=O)ccc1-c1cc2c(N[C@H](CO)c3ccccc3)ncnc2s1	12%
CN(C)CCNC(=O)c1ccc(-c2cc3c(N[C@H](CO)c4ccccc4)ncnc3s2)cc1	13%
COc1ccc(C(=O)NCCN(C)C)cc1-c1cc2c(N[C@H](C)c3ccccc3)ncnc2s1	3%

target: Tyrosine-protein kinase Fer (Homo sapiens) (UniProt P16591); experiment: Inhibition of FER (unknown origin) at 500 nM

SMILES	inhibition
COc1cc(C(N)=O)ccc1-c1cc2c(N[C@H](CO)c3ccccc3)ncnc2s1	-3%
CN(C)CCNC(=O)c1ccc(-c2cc3c(N[C@H](CO)c4ccccc4)ncnc3s2)cc1	-4%
COc1ccc(C(=O)NCCN(C)C)cc1-c1cc2c(N[C@H](C)c3ccccc3)ncnc2s1	5%

target: Fibroblast growth factor receptor 1 (Homo sapiens) (UniProt P11362); experiment: Inhibition of FGFR1 (unknown origin) at 500 nM
Sequence (P11362 22-822 limits assumed): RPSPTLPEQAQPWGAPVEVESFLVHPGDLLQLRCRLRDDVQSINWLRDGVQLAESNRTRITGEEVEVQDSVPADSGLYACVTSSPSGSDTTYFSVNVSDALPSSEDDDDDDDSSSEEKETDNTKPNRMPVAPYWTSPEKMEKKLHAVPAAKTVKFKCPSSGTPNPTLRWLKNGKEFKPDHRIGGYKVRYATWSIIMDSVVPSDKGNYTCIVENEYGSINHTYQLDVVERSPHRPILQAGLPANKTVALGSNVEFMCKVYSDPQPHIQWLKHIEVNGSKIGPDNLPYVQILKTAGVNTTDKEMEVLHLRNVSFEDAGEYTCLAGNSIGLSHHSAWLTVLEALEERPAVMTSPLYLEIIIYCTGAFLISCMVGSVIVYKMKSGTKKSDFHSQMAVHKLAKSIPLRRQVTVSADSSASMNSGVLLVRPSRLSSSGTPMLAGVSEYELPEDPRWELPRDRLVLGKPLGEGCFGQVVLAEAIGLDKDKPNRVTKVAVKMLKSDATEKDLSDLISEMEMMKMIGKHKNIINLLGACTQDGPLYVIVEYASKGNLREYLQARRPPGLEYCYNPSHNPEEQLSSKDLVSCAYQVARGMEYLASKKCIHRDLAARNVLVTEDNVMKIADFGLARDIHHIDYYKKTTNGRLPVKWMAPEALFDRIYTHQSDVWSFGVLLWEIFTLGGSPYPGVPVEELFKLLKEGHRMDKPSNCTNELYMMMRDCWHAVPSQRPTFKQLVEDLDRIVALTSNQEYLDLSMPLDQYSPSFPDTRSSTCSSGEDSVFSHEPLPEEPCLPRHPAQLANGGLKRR

SMILES	inhibition
COc1cc(C(N)=O)ccc1-c1cc2c(N[C@H](CO)c3ccccc3)ncnc2s1	-10%
CN(C)CCNC(=O)c1ccc(-c2cc3c(N[C@H](CO)c4ccccc4)ncnc3s2)cc1	-5%
COc1ccc(C(=O)NCCN(C)C)cc1-c1cc2c(N[C@H](C)c3ccccc3)ncnc2s1	-4%

target: Tyrosine-protein kinase Fgr (Homo sapiens) (UniProt P09769); experiment: Inhibition of FGR (unknown origin) at 500 nM

SMILES	inhibition
COc1cc(C(N)=O)ccc1-c1cc2c(N[C@H](CO)c3ccccc3)ncnc2s1	40%
CN(C)CCNC(=O)c1ccc(-c2cc3c(N[C@H](CO)c4ccccc4)ncnc3s2)cc1	33%
COc1ccc(C(=O)NCCN(C)C)cc1-c1cc2c(N[C@H](C)c3ccccc3)ncnc2s1	71%

target: Vascular endothelial growth factor receptor 1 (Homo sapiens) (UniProt P17948); experiment: Inhibition of FLT1 (unknown origin) at 500 nM

SMILES	inhibition
COc1cc(C(N)=O)ccc1-c1cc2c(N[C@H](CO)c3ccccc3)ncnc2s1	0%
CN(C)CCNC(=O)c1ccc(-c2cc3c(N[C@H](CO)c4ccccc4)ncnc3s2)cc1	5%
COc1ccc(C(=O)NCCN(C)C)cc1-c1cc2c(N[C@H](C)c3ccccc3)ncnc2s1	-8%

target: Insulin-like growth factor 1 receptor (Homo sapiens) (UniProt P08069); experiment: Inhibition of IGF1R (unknown origin) at 500 nM

SMILES	inhibition
COc1cc(C(N)=O)ccc1-c1cc2c(N[C@H](CO)c3ccccc3)ncnc2s1	-9%
CN(C)CCNC(=O)c1ccc(-c2cc3c(N[C@H](CO)c4ccccc4)ncnc3s2)cc1	0%
COc1ccc(C(=O)NCCN(C)C)cc1-c1cc2c(N[C@H](C)c3ccccc3)ncnc2s1	-2%

target: Tyrosine-protein kinase JAK2 (Homo sapiens) (UniProt O60674); experiment: Inhibition of JAK2 (unknown origin) at 500 nM

SMILES	inhibition
COc1cc(C(N)=O)ccc1-c1cc2c(N[C@H](CO)c3ccccc3)ncnc2s1	-2%
CN(C)CCNC(=O)c1ccc(-c2cc3c(N[C@H](CO)c4ccccc4)ncnc3s2)cc1	-3%
COc1ccc(C(=O)NCCN(C)C)cc1-c1cc2c(N[C@H](C)c3ccccc3)ncnc2s1	-4%

target: Mitogen-activated protein kinase 1 (Homo sapiens) (UniProt P28482); experiment: Inhibition of MAPK1 (unknown origin) at 500 nM

SMILES	inhibition
COc1cc(C(N)=O)ccc1-c1cc2c(N[C@H](CO)c3ccccc3)ncnc2s1	12%
CN(C)CCNC(=O)c1ccc(-c2cc3c(N[C@H](CO)c4ccccc4)ncnc3s2)cc1	-2%
COc1ccc(C(=O)NCCN(C)C)cc1-c1cc2c(N[C@H](C)c3ccccc3)ncnc2s1	-1%

target: Mitogen-activated protein kinase 8 (Homo sapiens) (UniProt P45983); experiment: Inhibition of MAPK8 (unknown origin) at 500 nM

SMILES	inhibition
COc1cc(C(N)=O)ccc1-c1cc2c(N[C@H](CO)c3ccccc3)ncnc2s1	42%
CN(C)CCNC(=O)c1ccc(-c2cc3c(N[C@H](CO)c4ccccc4)ncnc3s2)cc1	8%

target: MAP kinase-activated protein kinase 2 (Homo sapiens) (UniProt P49137); experiment: Inhibition of MAPKAPK2 (unknown origin) at 500 nM

SMILES	inhibition
COc1cc(C(N)=O)ccc1-c1cc2c(N[C@H](CO)c3ccccc3)ncnc2s1	-7%
CN(C)CCNC(=O)c1ccc(-c2cc3c(N[C@H](CO)c4ccccc4)ncnc3s2)cc1	2%
COc1ccc(C(=O)NCCN(C)C)cc1-c1cc2c(N[C@H](C)c3ccccc3)ncnc2s1	-1%

target: Platelet-derived growth factor receptor alpha (Homo sapiens) (UniProt P16234); experiment: Inhibition of PDGFRA (unknown origin) at 500 nM

SMILES	inhibition
COc1cc(C(N)=O)ccc1-c1cc2c(N[C@H](CO)c3ccccc3)ncnc2s1	0%
CN(C)CCNC(=O)c1ccc(-c2cc3c(N[C@H](CO)c4ccccc4)ncnc3s2)cc1	10%
COc1ccc(C(=O)NCCN(C)C)cc1-c1cc2c(N[C@H](C)c3ccccc3)ncnc2s1	-3%

target: Serine/threonine-protein kinase pim-2 (Homo sapiens) (UniProt Q9P1W9); experiment: Inhibition of PIM2 (unknown origin) at 500 nM
Sequence (Q9P1W9 whole entry, looked up): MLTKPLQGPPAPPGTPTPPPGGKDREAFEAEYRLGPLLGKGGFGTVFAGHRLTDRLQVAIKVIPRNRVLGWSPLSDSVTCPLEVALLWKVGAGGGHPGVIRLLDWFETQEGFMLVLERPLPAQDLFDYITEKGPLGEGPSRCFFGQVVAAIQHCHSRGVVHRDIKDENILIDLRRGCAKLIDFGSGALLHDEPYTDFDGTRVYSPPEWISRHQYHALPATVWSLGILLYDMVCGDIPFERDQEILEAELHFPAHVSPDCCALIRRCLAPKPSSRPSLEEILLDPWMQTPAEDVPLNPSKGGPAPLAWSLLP

SMILES	inhibition
COc1cc(C(N)=O)ccc1-c1cc2c(N[C@H](CO)c3ccccc3)ncnc2s1	11%
CN(C)CCNC(=O)c1ccc(-c2cc3c(N[C@H](CO)c4ccccc4)ncnc3s2)cc1	1%
COc1ccc(C(=O)NCCN(C)C)cc1-c1cc2c(N[C@H](C)c3ccccc3)ncnc2s1	-4%

target: Serine/threonine-protein kinase PLK1 (Homo sapiens) (UniProt P53350); experiment: Inhibition of PLK1 (unknown origin) at 500 nM

SMILES	inhibition
COc1cc(C(N)=O)ccc1-c1cc2c(N[C@H](CO)c3ccccc3)ncnc2s1	-8%
CN(C)CCNC(=O)c1ccc(-c2cc3c(N[C@H](CO)c4ccccc4)ncnc3s2)cc1	6%
COc1ccc(C(=O)NCCN(C)C)cc1-c1cc2c(N[C@H](C)c3ccccc3)ncnc2s1	2%

target: Protein kinase C alpha type (Homo sapiens) (UniProt P17252); experiment: Inhibition of PRKCA (unknown origin) at 500 nM

SMILES	inhibition
COc1cc(C(N)=O)ccc1-c1cc2c(N[C@H](CO)c3ccccc3)ncnc2s1	-4%

target: Protein kinase C beta type (Homo sapiens) (UniProt P05771); experiment: Inhibition of PRKCB1 (unknown origin) at 500 nM

SMILES	inhibition
COc1cc(C(N)=O)ccc1-c1cc2c(N[C@H](CO)c3ccccc3)ncnc2s1	5%
CN(C)CCNC(=O)c1ccc(-c2cc3c(N[C@H](CO)c4ccccc4)ncnc3s2)cc1	18%
COc1ccc(C(=O)NCCN(C)C)cc1-c1cc2c(N[C@H](C)c3ccccc3)ncnc2s1	-2%

target: Focal adhesion kinase 1 (Homo sapiens) (UniProt Q05397); experiment: Inhibition of PTK2 (unknown origin) at 500 nM

SMILES	inhibition
COc1cc(C(N)=O)ccc1-c1cc2c(N[C@H](CO)c3ccccc3)ncnc2s1	3%
CN(C)CCNC(=O)c1ccc(-c2cc3c(N[C@H](CO)c4ccccc4)ncnc3s2)cc1	7%
COc1ccc(C(=O)NCCN(C)C)cc1-c1cc2c(N[C@H](C)c3ccccc3)ncnc2s1	3%

target: Proto-oncogene tyrosine-protein kinase receptor Ret (Homo sapiens) (UniProt P07949); experiment: Inhibition of RET (unknown origin) at 500 nM

SMILES	inhibition
COc1cc(C(N)=O)ccc1-c1cc2c(N[C@H](CO)c3ccccc3)ncnc2s1	5%
CN(C)CCNC(=O)c1ccc(-c2cc3c(N[C@H](CO)c4ccccc4)ncnc3s2)cc1	20%
COc1ccc(C(=O)NCCN(C)C)cc1-c1cc2c(N[C@H](C)c3ccccc3)ncnc2s1	7%

target: Proto-oncogene tyrosine-protein kinase Src (Homo sapiens) (UniProt P12931); experiment: Inhibition of SRC (unknown origin) at 500 nM
Sequence (P12931 2-536 limits assumed): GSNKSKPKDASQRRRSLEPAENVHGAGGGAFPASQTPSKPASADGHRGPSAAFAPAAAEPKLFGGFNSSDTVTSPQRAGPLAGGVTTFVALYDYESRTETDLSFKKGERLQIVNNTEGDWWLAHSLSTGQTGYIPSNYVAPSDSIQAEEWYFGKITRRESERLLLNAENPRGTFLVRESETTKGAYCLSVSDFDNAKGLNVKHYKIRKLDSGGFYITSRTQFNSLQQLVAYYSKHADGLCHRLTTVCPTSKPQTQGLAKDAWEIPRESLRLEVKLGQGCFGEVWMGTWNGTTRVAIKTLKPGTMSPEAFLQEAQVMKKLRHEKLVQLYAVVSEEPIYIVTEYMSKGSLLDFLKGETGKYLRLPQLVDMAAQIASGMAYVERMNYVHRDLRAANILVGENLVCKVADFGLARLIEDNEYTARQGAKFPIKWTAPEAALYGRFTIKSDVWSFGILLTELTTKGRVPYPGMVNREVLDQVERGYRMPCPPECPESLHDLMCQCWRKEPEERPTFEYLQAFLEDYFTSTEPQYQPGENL

SMILES	inhibition
COc1cc(C(N)=O)ccc1-c1cc2c(N[C@H](CO)c3ccccc3)ncnc2s1	20%
CN(C)CCNC(=O)c1ccc(-c2cc3c(N[C@H](CO)c4ccccc4)ncnc3s2)cc1	17%
COc1ccc(C(=O)NCCN(C)C)cc1-c1cc2c(N[C@H](C)c3ccccc3)ncnc2s1	9%

target: Tyrosine-protein kinase Yes (Homo sapiens) (UniProt P07947); experiment: Inhibition of YES1 (unknown origin) at 500 nM

SMILES	inhibition
COc1cc(C(N)=O)ccc1-c1cc2c(N[C@H](CO)c3ccccc3)ncnc2s1	40%
CN(C)CCNC(=O)c1ccc(-c2cc3c(N[C@H](CO)c4ccccc4)ncnc3s2)cc1	21%
COc1ccc(C(=O)NCCN(C)C)cc1-c1cc2c(N[C@H](C)c3ccccc3)ncnc2s1	43%

Source: ChEMBL document CHEMBL3758163, “Extended structure-activity study of thienopyrimidine-based EGFR inhibitors with evaluation of drug-like properties” (Eur J Med Chem, 2016)
